Measurements from patent publication US8653087B2, “Pyrido [5, 4-D] pyrimidines as cell proliferation inhibitors” (Boehringer Ingelheim International GmbH, priority 2008, dated 2014).

target: B-Raf (V600E)-kinase (Homo sapiens (Human), UniProt P15056, V600E); experiment: Kinase test B-RAF (V600E); type: biochemical; conditions: B-RAF (V600E) kinase test, 250 μM ATP
Method: Kinase Test B-RAF (V600E)
In a dilution series 10 μL of test substance solution are placed in a multiwell plate. The dilution series is selected so that generally a range of concentrations of 2 μM to 0.119 nM or 0.017 nM is covered. If necessary the initial concentration of 2 μM is changed to 50 μM, 10 μM or 0.4 μM or 0.2857 μM and further dilution is carried out accordingly. The final concentration of DMSO is 5%. 10 μL of the B-Raf (V600E)-kinase solution are pipetted in (containing 0.5 ng B-Raf (V600E)-kinase in 20 mM Tris-HCl pH 7.5, 0.1 mM EDTA, 0.1 mM EGTA, 0.286 mM sodium orthovanadate, 10% glycerol, 1 mg/mL bovine serum albumin, 1 mM dithiothreitol) and the mixture is incubated for 24 h at RT under with shaking. The kinase reaction is started by the addition of 20 μL ATP solution [final concentration: 250 μM ATP, 30 mM Tris-HCl pH 7.5, 0.02% Brij, 0.2 mM sodium orthovanadate, 10 mM magnesium acetate, 0.1 mM EGTA, phosphatase cocktail (Sigma, # P2850, dilution recommended by the manufacturer), 0.1 mM EGTA] and 10 μL MEK1 solution [containing 50 ng biotinylated MEK1 (prepared from purified MEK1 according to standard procedure, e.g. with EZ-Link Sulpho-NHS-LC-Biotin reagent, Pierce, #21335) and carried out for 60 min at RT with constant shaking. The reaction is stopped by the addition of 12 μL of a 100 mM EDTA solution and incubation is continued for a further 5 min. 55 μL of the reaction solution are transferred into a streptavidin-coated plate (e.g. Streptawell HighBond, Roche, #11989685001) and shaken gently for 1 h at RT, in order to bind biotinylated MEK1 to the plate. After elimination of the liquid the plate is washed five times with 200 μL of 1×PBS and 100 μL solution of primary antibody plus europium-labelled secondary antibody [Anti Phospho-MEK (Ser217/221), Cell Signaling, #9121 and Eu-N1 labeled goat-anti-rabbit antibody, Perkin Elmer, # AD0105], the primary antibody is diluted 1:2000 and the secondary antibody is diluted to 0.4-0.5 μg/mL in Delfia Assay Buffer (Perkin Elmer, #1244-111). After 1 h shaking at RT the solution is poured away and washed five times with 200 μL Delfia Wash Buffer (Perkin Elmer, #4010-0010/#1244-114). After the addition of 200 μL Enhancement Solution (Perkin Elmer, #4001-0010/#1244-105) the mixture is shaken for 10 min at RT and then measured in a Wallac Victor using the program “Delfia Time Resolved Fluorescence (Europium)”. IC50 values are obtained from these dosage-activity curves using a software program (GraphPadPrizm).

B-Raf (V600E)-kinase, sequence (P15056 whole entry V600E): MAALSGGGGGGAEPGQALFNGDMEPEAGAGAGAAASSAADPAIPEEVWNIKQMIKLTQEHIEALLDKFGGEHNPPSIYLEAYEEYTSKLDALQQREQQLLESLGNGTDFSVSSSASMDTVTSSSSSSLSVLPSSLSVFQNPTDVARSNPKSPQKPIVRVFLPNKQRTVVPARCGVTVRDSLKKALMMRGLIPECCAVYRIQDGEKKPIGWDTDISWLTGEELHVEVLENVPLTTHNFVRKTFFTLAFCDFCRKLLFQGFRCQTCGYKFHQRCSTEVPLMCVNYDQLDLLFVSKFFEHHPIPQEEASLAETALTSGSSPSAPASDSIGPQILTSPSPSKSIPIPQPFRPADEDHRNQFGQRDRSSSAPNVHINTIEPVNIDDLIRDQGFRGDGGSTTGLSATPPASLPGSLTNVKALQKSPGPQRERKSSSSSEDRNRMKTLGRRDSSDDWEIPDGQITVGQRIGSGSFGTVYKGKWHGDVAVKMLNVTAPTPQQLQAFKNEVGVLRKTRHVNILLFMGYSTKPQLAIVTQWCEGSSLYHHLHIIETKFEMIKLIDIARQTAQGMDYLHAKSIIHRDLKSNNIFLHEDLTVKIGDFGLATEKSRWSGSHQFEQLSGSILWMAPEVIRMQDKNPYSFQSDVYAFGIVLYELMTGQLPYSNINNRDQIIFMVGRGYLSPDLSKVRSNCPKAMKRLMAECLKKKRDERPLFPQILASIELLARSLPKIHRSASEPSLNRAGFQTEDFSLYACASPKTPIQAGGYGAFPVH

Structure (SMILES)	IC50 [nM]
COc1ccc(NC(=O)c2ccc(C)c(Nc3ncnc4c(N)nc(N5CCN(C)CC5)nc34)c2)cc1C(F)(F)F [I-1]	26
Cc1ccc(C(=O)Nc2cc(Br)cc(C(F)(F)F)c2)cc1Nc1ncnc2c(N)nc(N3CCN(C)CC3)nc12 [I-2]	9
Cc1ccc(C(=O)Nc2ccc(C(F)(F)F)cc2)cc1Nc1ncnc2c(N)nc(N3CCCN(C)CC3)nc12 [I-3]	9
Cc1ccc(C(=O)Nc2ccc(C(F)(F)F)cc2)cc1Nc1ncnc2c(N)nc(N3CCNCC3)nc12 [I-4]	7
Cc1ccc(C(=O)Nc2ccc(C(F)(F)F)cc2)cc1Nc1ncnc2c(N)nc(N3CCN(C)CC3)nc12 [I-5]	5
Cc1ccc(C(=O)Nc2ccc(C(F)(F)F)cc2)cc1Nc1ncnc2c(N)nc(NCCN(C)C)nc12 [I-6]	68
Cc1ccc(C(=O)Nc2ccc(C(F)(F)F)cc2)cc1Nc1ncnc2c(N)nc(N3CCN(C4CCN(C)CC4)CC3)nc12 [I-7]	3
Cc1ccc(C(=O)Nc2ccc(C(F)(F)F)cc2)cc1Nc1ncnc2c(N)nc(N3CCN(CC4CCN(C)CC4)CC3)nc12 [I-8]	2
Cc1ccc(C(=O)Nc2cc(C(C)(C)C)on2)cc1Nc1ncnc2c(N)nc(N3CCN(C)CC3)nc12 [I-9]	3
Cc1ccc(C(=O)Nc2cc(C(C)(C)C)on2)cc1Nc1ncnc2c(N)nc(N3CCN(C4CCN(C)CC4)CC3)nc12 [I-10]	1
Cc1ccc(C(=O)Nc2cc(C(C)(C)C)on2)cc1Nc1ncnc2c(N)nc(N3CCCN(C)CC3)nc12 [I-11]	1
Cc1ccc(C(=O)Nc2cc(C(C)(C)C)n[nH]2)cc1Nc1ncnc2c(N)nc(N3CCN(C4CCN(C)CC4)CC3)nc12 [I-12]	2
Cc1ccc(C(=O)Nc2cc(C(C)(C)C)n[nH]2)cc1Nc1ncnc2c(N)nc(N3CCN(CC4CCN(C)CC4)CC3)nc12 [I-13]	4
Cc1ccc(C(=O)Nc2cc(C(C)(C)C)n[nH]2)cc1Nc1ncnc2c(N)nc(N3CCCN(C)CC3)nc12 [I-14]	3
COc1ccc(NC(=O)c2ccc(C)c(Nc3ncnc4c(N)nc(N5CCN(C6CCN(C)CC6)CC5)nc34)c2)cc1C(F)(F)F [I-15]	1
COc1ccc(NC(=O)c2ccc(C)c(Nc3ncnc4c(N)nc(N5CCN(CC6CCN(C)CC6)CC5)nc34)c2)cc1C(F)(F)F [I-16]	1
COc1ccc(NC(=O)c2ccc(C)c(Nc3ncnc4c(N)nc(N5CCCN(C)CC5)nc34)c2)cc1C(F)(F)F [I-17]	1
Cc1ccc(C(=O)Nc2cc(C(C)(C)C)n[nH]2)cc1Nc1ncnc2c(N)nc(N3CCN(C)CC3)nc12 [I-18]	3
CN1CCN(c2nc(N)c3ncnc(Nc4cccc(C(=O)Nc5cccc(C(F)(F)F)c5)c4)c3n2)CC1 [I-19]	57
CN1CCCN(c2nc(N)c3ncnc(Nc4cccc(C(=O)Nc5cccc(C(F)(F)F)c5)c4)c3n2)CC1 [I-20]	50

Structure (SMILES)	IC50 [nM]
CN1CCC(N2CCN(c3nc(N)c4ncnc(Nc5cccc(C(=O)Nc6cccc(C(F)(F)F)c6)c5)c4n3)CC2)CC1 [I-21]	22
CN1CCC(CN2CCN(c3nc(N)c4ncnc(Nc5cccc(C(=O)Nc6cccc(C(F)(F)F)c6)c5)c4n3)CC2)CC1 [I-22]	13
CN1CCN(c2nc(N)c3ncnc(Nc4cc(C(=O)Nc5cccc(C(F)(F)F)c5)ccc4Cl)c3n2)CC1 [I-23]	14
CN1CCCN(c2nc(N)c3ncnc(Nc4cc(C(=O)Nc5cccc(C(F)(F)F)c5)ccc4Cl)c3n2)CC1 [I-24]	9
CN1CCC(N2CCN(c3nc(N)c4ncnc(Nc5cc(C(=O)Nc6cccc(C(F)(F)F)c6)ccc5Cl)c4n3)CC2)CC1 [I-25]	3
CN1CCN(c2nc(N)c3ncnc(Nc4cc(C(=O)Nc5cccc(C(F)(F)F)c5)ccc4Br)c3n2)CC1 [I-26]	70
CN1CCCN(c2nc(N)c3ncnc(Nc4cc(C(=O)Nc5cccc(C(F)(F)F)c5)ccc4Br)c3n2)CC1 [I-27]	83
CN1CCC(N2CCN(c3nc(N)c4ncnc(Nc5cc(C(=O)Nc6cccc(C(F)(F)F)c6)ccc5Br)c4n3)CC2)CC1 [I-28]	13
CN1CCC(CN2CCN(c3nc(N)c4ncnc(Nc5cc(C(=O)Nc6cccc(C(F)(F)F)c6)ccc5Br)c4n3)CC2)CC1 [I-29]	15
COc1ccc(C(=O)Nc2cccc(C(F)(F)F)c2)cc1Nc1ncnc2c(N)nc(N3CCN(C)CC3)nc12 [I-30]	35
COc1ccc(C(=O)Nc2cccc(C(F)(F)F)c2)cc1Nc1ncnc2c(N)nc(N3CCCN(C)CC3)nc12 [I-31]	58
COc1ccc(C(=O)Nc2cccc(C(F)(F)F)c2)cc1Nc1ncnc2c(N)nc(N3CCN(C4CCN(C)CC4)CC3)nc12 [I-32]	14
COc1ccc(C(=O)Nc2cccc(C(F)(F)F)c2)cc1Nc1ncnc2c(N)nc(N3CCN(CC4CCN(C)CC4)CC3)nc12 [I-33]	12
Cc1ccc(C(=O)Nc2cc(C(C)(C)C)n[nH]2)cc1Nc1ncnc2c(N)nc(N3CCN4CCCC4C3)nc12 (stereo not shown) [I-34]	2
Cc1ccc(C(=O)Nc2cc(C(C)(C)C)n[nH]2)cc1Nc1ncnc2c(N)nc(N3C[C@@H](C)N[C@@H](C)C3)nc12 [I-35]	2
Cc1ccc(C(=O)Nc2cc(C(C)(C)C)n[nH]2)cc1Nc1ncnc2c(N)nc(N3C[C@H]4C[C@@H]3CN4C)nc12 [I-36]	4
Cc1ccc(C(=O)Nc2cc(C(C)(C)C)n[nH]2)cc1Nc1ncnc2c(N)nc(N3CCN(CC(C)C)CC3)nc12 [I-37]	4
Cc1ccc(C(=O)Nc2cc(C(C)(C)C)n[nH]2)cc1Nc1ncnc2c(N)nc(N3CCN(CC4CCCO4)CC3)nc12 (stereo not shown) [I-38]	6
Cc1ccc(C(=O)Nc2cc(C(C)(C)C)n[nH]2)cc1Nc1ncnc2c(N)nc(N3CCN(C4CCCC4)CC3)nc12 [I-39]	5
Cc1ccc(C(=O)Nc2cc(C(C)(C)C)n[nH]2)cc1Nc1ncnc2c(N)nc(N3CCN(CC4CCCN(C)C4)CC3)nc12 (stereo not shown) [I-40]	3

Structure (SMILES)	IC50 [nM]
COCCN1CCN(c2nc(N)c3ncnc(Nc4cc(C(=O)Nc5cc(C(C)(C)C)n[nH]5)ccc4C)c3n2)CC1 [I-41]	5
Cc1ccc(C(=O)Nc2cc(C(C)(C)C)n[nH]2)cc1Nc1ncnc2c(N)nc(N3CCN(C4CC4)CC3)nc12 [I-42]	9
Cc1ccc(C(=O)Nc2cc(C(C)(C)C)n[nH]2)cc1Nc1ncnc2c(N)nc(N3CCN4CCCCC4C3)nc12 (stereo not shown) [I-43]	4
Cc1ccc(C(=O)Nc2cc(C(C)(C)C)n[nH]2)cc1Nc1ncnc2c(N)nc(N3CCC(N4CCN(C)CC4)CC3)nc12 [I-52]	55
COc1ccc(C(C)(C)C)cc1NC(=O)c1ccc(C)c(Nc2ncnc3c(N)nc(N4CCN(C)CC4)nc23)c1 [I-53]	21
COc1cc(NC(=O)c2ccc(C)c(Nc3ncnc4c(N)nc(N5CCN(C)CC5)nc34)c2)cc(C(F)(F)F)c1 [I-54]	5
Cc1ccc(C(=O)Nc2cccc(C(F)(F)F)c2)cc1Nc1ncnc2c(N)nc(N3CCN(C)CC3)nc12 [I-55]	< 1
Cc1ccc(C(=O)Nc2cccc(C(F)(F)F)c2)cc1Nc1ncnc2c(N)nc(N3CCN(C4CCN(C)CC4)CC3)nc12 [I-56]	< 1
Cc1ccc(C(=O)Nc2cccc(C(F)(F)F)c2)cc1Nc1ncnc2c(N)nc(N3CCN(C4CCCC4)CC3)nc12 [I-57]	< 1
Cc1ccc(C(=O)Nc2cccc(C(F)(F)F)c2)cc1Nc1ncnc2c(N)nc(N3CCCN(C4CC4)CC3)nc12 [I-58]	1
Cc1ccc(C(=O)Nc2cccc(C(F)(F)F)c2)cc1Nc1ncnc2c(N)nc(N3CCCNCC3)nc12 [I-59]	1
Cc1ccc(C(=O)Nc2cccc(C(F)(F)F)c2)cc1Nc1ncnc2c(N)nc(N3CCCN(c4ccncc4)CC3)nc12 [I-60]	< 1
Cc1ccc(C(=O)Nc2cccc(C(F)(F)F)c2)cc1Nc1ncnc2c(N)nc(N3CCN(CC4CCN(C)CC4)CC3)nc12 [I-61]	< 1
Cc1ccc(C(=O)Nc2cccc(C(F)(F)F)c2)cc1Nc1ncnc2c(N)nc(N3CC(C)NC(C)C3)nc12 (stereo not shown) [I-62]	2
Cc1ccc(C(=O)Nc2cccc(C(F)(F)F)c2)cc1Nc1ncnc2c(N)nc(N3CCCN(c4ncccn4)CC3)nc12 [I-63]	1
Cc1ccc(C(=O)Nc2cccc(C(F)(F)F)c2)cc1Nc1ncnc2c(N)nc(N3CCN(C(C)C)CC3)nc12 [I-64]	< 1
Cc1ccc(C(=O)Nc2cccc(C(F)(F)F)c2)cc1Nc1ncnc2c(N)nc(N3C[C@H]4C[C@@H]3CN4C)nc12 [I-65]	< 1
Cc1ccc(C(=O)Nc2cccc(C(F)(F)F)c2)cc1Nc1ncnc2c(N)nc(N3CCNCC3)nc12 [I-66]	< 1
